Experimental data taken from the NIST ThermoML archive (doi:10.1016/j.jct.2010.05.002).
± gives the expanded uncertainty stated by the source.

Assay: molar heat capacity at constant pressure
Details: 101.33 kPa, Crystal, Vacuum adiabatic calorimetry

CC(C)(C)c1ccc(-c2ccccc2)cc1 [4-(1,1-dimethylethyl)-1,1'-biphenyl]
molar heat capacity at constant pressure (156.5 K): 164.59 ± 1.1 J/K/mol
molar heat capacity at constant pressure (157.48 K): 165.54 ± 1.1 J/K/mol
molar heat capacity at constant pressure (158.46 K): 168.2 ± 1.1 J/K/mol
molar heat capacity at constant pressure (159.4 K): 167.88 ± 1.1 J/K/mol
molar heat capacity at constant pressure (160.49 K): 170.03 ± 1.1 J/K/mol
molar heat capacity at constant pressure (162.35 K): 170.22 ± 1.1 J/K/mol
molar heat capacity at constant pressure (163.32 K): 171.45 ± 1.1 J/K/mol
molar heat capacity at constant pressure (164.3 K): 171.68 ± 1.1 J/K/mol
molar heat capacity at constant pressure (165.27 K): 172.24 ± 1.1 J/K/mol
molar heat capacity at constant pressure (166.24 K): 173.77 ± 1.1 J/K/mol
molar heat capacity at constant pressure (167.21 K): 175.03 ± 1.1 J/K/mol
molar heat capacity at constant pressure (168.17 K): 175.74 ± 1.1 J/K/mol
molar heat capacity at constant pressure (169.13 K): 176.91 ± 1.1 J/K/mol
molar heat capacity at constant pressure (170.1 K): 177.85 ± 1.1 J/K/mol
molar heat capacity at constant pressure (171.06 K): 178.74 ± 1.1 J/K/mol
molar heat capacity at constant pressure (172.03 K): 179.57 ± 1.1 J/K/mol
molar heat capacity at constant pressure (172.99 K): 180.33 ± 1.1 J/K/mol
molar heat capacity at constant pressure (173.96 K): 181.16 ± 1.1 J/K/mol
molar heat capacity at constant pressure (174.88 K): 181.91 ± 1.1 J/K/mol
molar heat capacity at constant pressure (175.84 K): 182.48 ± 1.1 J/K/mol
molar heat capacity at constant pressure (176.8 K): 183.39 ± 1.1 J/K/mol
molar heat capacity at constant pressure (177.75 K): 184.41 ± 1.2 J/K/mol
molar heat capacity at constant pressure (178.71 K): 186.15 ± 1.2 J/K/mol
molar heat capacity at constant pressure (179.67 K): 186.69 ± 1.2 J/K/mol
molar heat capacity at constant pressure (180.62 K): 187.72 ± 1.2 J/K/mol
molar heat capacity at constant pressure (181.58 K): 187.66 ± 1.2 J/K/mol
molar heat capacity at constant pressure (182.53 K): 188.58 ± 1.2 J/K/mol
molar heat capacity at constant pressure (183.48 K): 190.07 ± 1.2 J/K/mol
molar heat capacity at constant pressure (184.43 K): 190.57 ± 1.2 J/K/mol
molar heat capacity at constant pressure (185.38 K): 191.97 ± 1.2 J/K/mol
molar heat capacity at constant pressure (186.33 K): 192.5 ± 1.2 J/K/mol
molar heat capacity at constant pressure (187.27 K): 193.52 ± 1.2 J/K/mol
molar heat capacity at constant pressure (188.22 K): 194.65 ± 1.2 J/K/mol
molar heat capacity at constant pressure (189.16 K): 195.58 ± 1.2 J/K/mol
molar heat capacity at constant pressure (190.05 K): 196.73 ± 1.2 J/K/mol
molar heat capacity at constant pressure (190.99 K): 197.88 ± 1.2 J/K/mol
molar heat capacity at constant pressure (191.93 K): 198.13 ± 1.2 J/K/mol
molar heat capacity at constant pressure (192.87 K): 199.81 ± 1.2 J/K/mol
molar heat capacity at constant pressure (193.81 K): 200.3 ± 1.2 J/K/mol
molar heat capacity at constant pressure (194.75 K): 200.51 ± 1.2 J/K/mol
molar heat capacity at constant pressure (195.68 K): 201.32 ± 1.3 J/K/mol
molar heat capacity at constant pressure (196.61 K): 203.32 ± 1.3 J/K/mol
molar heat capacity at constant pressure (197.55 K): 203.52 ± 1.3 J/K/mol
molar heat capacity at constant pressure (198.48 K): 205.18 ± 1.3 J/K/mol
molar heat capacity at constant pressure (199.41 K): 205.85 ± 1.3 J/K/mol
molar heat capacity at constant pressure (200.34 K): 205.72 ± 1.3 J/K/mol
molar heat capacity at constant pressure (201.52 K): 207.22 ± 1.3 J/K/mol
molar heat capacity at constant pressure (202.94 K): 208.68 ± 1.3 J/K/mol
molar heat capacity at constant pressure (204.37 K): 210.19 ± 1.3 J/K/mol
molar heat capacity at constant pressure (205.79 K): 211.33 ± 1.3 J/K/mol
molar heat capacity at constant pressure (207.14 K): 212.7 ± 1.3 J/K/mol
molar heat capacity at constant pressure (208.55 K): 214.44 ± 1.3 J/K/mol
molar heat capacity at constant pressure (209.96 K): 215.21 ± 1.3 J/K/mol
molar heat capacity at constant pressure (211.37 K): 217.19 ± 1.4 J/K/mol
molar heat capacity at constant pressure (212.78 K): 218.22 ± 1.4 J/K/mol
molar heat capacity at constant pressure (214.19 K): 219.53 ± 1.4 J/K/mol
molar heat capacity at constant pressure (215.59 K): 220.68 ± 1.4 J/K/mol
molar heat capacity at constant pressure (216.99 K): 222.17 ± 1.4 J/K/mol
molar heat capacity at constant pressure (218.39 K): 224.18 ± 1.4 J/K/mol
molar heat capacity at constant pressure (219.79 K): 225.72 ± 1.4 J/K/mol
molar heat capacity at constant pressure (221.18 K): 226.72 ± 1.4 J/K/mol
molar heat capacity at constant pressure (222.9 K): 227.94 ± 1.4 J/K/mol
molar heat capacity at constant pressure (224.62 K): 229.7 ± 1.4 J/K/mol
molar heat capacity at constant pressure (226 K): 231.67 ± 1.4 J/K/mol
molar heat capacity at constant pressure (227.39 K): 232.23 ± 1.4 J/K/mol
molar heat capacity at constant pressure (228.77 K): 233.85 ± 1.4 J/K/mol
molar heat capacity at constant pressure (230.14 K): 234.83 ± 1.4 J/K/mol
molar heat capacity at constant pressure (231.52 K): 236.49 ± 1.5 J/K/mol
molar heat capacity at constant pressure (232.88 K): 237.84 ± 1.5 J/K/mol
molar heat capacity at constant pressure (234.25 K): 239.02 ± 1.5 J/K/mol
molar heat capacity at constant pressure (235.61 K): 240.58 ± 1.5 J/K/mol
molar heat capacity at constant pressure (236.97 K): 241.66 ± 1.5 J/K/mol
molar heat capacity at constant pressure (238.33 K): 243.18 ± 1.5 J/K/mol
molar heat capacity at constant pressure (239.69 K): 244.52 ± 1.5 J/K/mol
molar heat capacity at constant pressure (241.05 K): 245.68 ± 1.5 J/K/mol
molar heat capacity at constant pressure (242.4 K): 247.57 ± 1.5 J/K/mol
molar heat capacity at constant pressure (243.75 K): 248.49 ± 1.5 J/K/mol
molar heat capacity at constant pressure (244.98 K): 249.71 ± 1.6 J/K/mol
molar heat capacity at constant pressure (246.33 K): 251.82 ± 1.6 J/K/mol
molar heat capacity at constant pressure (247.66 K): 253.81 ± 1.6 J/K/mol
molar heat capacity at constant pressure (249 K): 254.6 ± 1.6 J/K/mol
molar heat capacity at constant pressure (250.34 K): 256.26 ± 1.6 J/K/mol
molar heat capacity at constant pressure (251.68 K): 256.95 ± 1.6 J/K/mol
molar heat capacity at constant pressure (253.01 K): 258.51 ± 1.6 J/K/mol
molar heat capacity at constant pressure (254.34 K): 259.55 ± 1.6 J/K/mol
molar heat capacity at constant pressure (255.66 K): 261.49 ± 1.6 J/K/mol
molar heat capacity at constant pressure (256.97 K): 262.33 ± 1.6 J/K/mol
molar heat capacity at constant pressure (258.29 K): 263.11 ± 1.6 J/K/mol
molar heat capacity at constant pressure (259.61 K): 265.21 ± 1.6 J/K/mol
molar heat capacity at constant pressure (260.92 K): 267.1 ± 1.6 J/K/mol
molar heat capacity at constant pressure (262.23 K): 268.4 ± 1.7 J/K/mol
molar heat capacity at constant pressure (263.54 K): 269.72 ± 1.7 J/K/mol
molar heat capacity at constant pressure (264.84 K): 270.96 ± 1.7 J/K/mol
molar heat capacity at constant pressure (265.99 K): 271.74 ± 1.7 J/K/mol
molar heat capacity at constant pressure (267.28 K): 273.32 ± 1.7 J/K/mol
